Where no end group is shown, it is not given here. The star is where a group is joined. Biotin = O=C1N[C@H]2[C@H](CS[C@H]2CCCCC(=O)*)N1
Assays:
HSV-1 GFP = HSV-1 GFP infection of human fibroblast, flow cytometry 48 hpi; conditions: for viral inhibition of alanine variant compared with SEQ ID NO.6 / viral inhibition: HSV-1 GFP MOI 0.05, 48 hpi
Text: Screening of alanine modified peptides in human fibroblasts.
Data was processed in FlowJo (Tree Star)

STING activation [1] = conditions: PBMCs of two donors with wildtype STING, peptide priming then HT-DNA, 20 hours; vs parental SEQ ID NO.6
Procedure: Both donors carried STING wildtype proteins allowing us to evaluate important amino acid positions within the polypeptide.
(§1) Peripheral Blood Mononuclear cells (PBMCs) were isolated from healthy donors by Ficoll Paque gradient centrifugation (GE Healthcare). PBMCs were cultured in RPMI complete supplemented with IL-2.
(§2) To quantify functional type I IFN the reporter cell line HEK-Blue™ IFN-α/β (InvivoGen) was utilized according to the manufacturer's instructions. […] This cell line expresses secreted embryonic alkaline phosphatase under the control of the IFN-α/β inducible ISG54 promotor. SEAP activity was assessed by measuring optical density (OD) at 620 nm on a micro plate reader (ELx808, BioTEK). The standard range was made with IFN-α (A2) (PBL Assay Science).
(§3) Protein levels of the cytokines CXCL10 and IL6 in supernatants, were measured using DuoSet ELISA kits from RnD following the manufacturer's instructions.

STING activation [2] = assay: Screening of alanine modified peptides in PMA-differentiated THP1 cells stimulated with 2′3′cGAMP; conditions: PMA-treated THP1 (STING HAQ), peptide pre-stimulation 1 hour, then 2′3′cGAMP, supernatant 20 hours; alanine variant vs SEQ ID NO.6
Text: Screening of alanine modified peptides in THP1 cells. […] THP1 cells were differentiated into macrophages using PMA. […] Twenty hours later supernatants were harvest and used to assess the production of type I IFN (A) or CXCL10 (B). Data represent the mean±SD of biological triplicates, representative of two independent experiments
as §2, §3

STING activity = conditions: PBMCs from two donors, peptide pre-treatment then cGAMP; vs peptide 101
Procedure: as §1, §2, §3

STING activation [3] = conditions: previously shown; no details given; cited from earlier work
[4] = Circular dichroism spectrum of polypeptides; type: physicochemical; conditions: in the recommended buffer
Text: FIG. 5. CD spectra of polypeptides with specific alanine mutations.
The Example illustrate the CD spectrum of polypeptide (SEQ ID NO. 6) and two alanine mutations (SEQ ID NO. 17 and 19). […] FIG. 5.

human fibroblast = assay: Cell viability test in human fibroblast (CellTiter-Glo); type: cell-based; conditions: 48 hpi
Procedure: FIG. 8. Cell viability test. […] As a positive control for cell death, human fibroblast was treated with staurosporine (500 nM). Cell viability was analyzed 48 hpi.
The highest peptide concentration utilized in the present studies reached a maximum cell death percentage of less than 10%; cf. FIG. 8.
Viability tests were conducted using the CellTiter-Glo® 2.0 Assay (Promega, G9242). Each sample was conducted in technical triplicates and luminescence data analyzed.

Substance: KKYKNAVLLKGLEVINDYHF ((1)..(20) An immunomodulatory polypeptide derived from the pyrin domain of human IFI16 with amino acid residue changes.) [peptide A6]
- viral inhibition of alanine variant compared with SEQ ID NO.6 (HSV-1 GFP): depleted
- secretion of interleukin IL6 (STING activation [1]): prohibited the synergistic effects
- synergistic effect of supporting STING activation: induction of type I IFNs (STING activation [2]): affected polypeptide synergistic effects

Substance: KKYKNIVLLKGLEVANDYHF ((1)..(20) An immunomodulatory polypeptide derived from the pyrin domain of human IFI16 with amino acid residue changes.) [peptide A15]
- secretion of interleukin IL6 (STING activation [1]): prohibited the synergistic effects

Substance: KKYKNIVLLKGLAVINDYAA ((1)..(20) An immunomodulatory polypeptide derived from the pyrin domain of human IFI16 with amino acid residue changes.) [peptide 107]
- CXCL10 secretion (STING activity): supported increased IFN and CXCL10 secretion
- IFN secretion (STING activity): supported increased IFN and CXCL10 secretion
- IL6 response (STING activity): impaired the IL6 response

Substance: KKYKNIVLLKGLEAINDYHF ((1)..(20) An immunomodulatory polypeptide derived from the pyrin domain of human IFI16 with amino acid residue changes.) [peptide A14]
- viral inhibition of alanine variant compared with SEQ ID NO.6 (HSV-1 GFP): decreased

Substance: KKYKNIVLLKGAEVINDYHF ((1)..(20) An immunomodulatory polypeptide derived from the pyrin domain of human IFI16 with amino acid residue changes.) [peptide A12]
- synergistic effect of supporting STING activation: induction of type I IFNs (STING activation [2]): affected polypeptide synergistic effects

Substance: Biotin-EDIPTLEDLAETLKKEKLKGRKKRRQRRRPQ-NH2 [S7]
- synergistic effects on STING activation (STING activation [3]): not to lead to synergistic effects on STING activation

Substance: KKYKNIVLLKGLEVIADYHF ((1)..(20) An immunomodulatory polypeptide derived from the pyrin domain of human IFI16 with amino acid residue changes.) [peptide A16]
- secretion of interleukin IL6 (STING activation [1]): prohibited the synergistic effects

Substance: KKYKNIVLLKALEVINDYHF ((1)..(20) An immunomodulatory polypeptide derived from the pyrin domain of human IFI16 with amino acid residue changes.) [peptide A11]
- secondary structure from CD spectrum [4]: random coil-coil formation
- synergistic effect of supporting STING activation: CXCL10 cytokine secretion (STING activation [2]): strongly affected the synergistic effects

Substance: KAYKNIVLLKGLEVINDYHF ((1)..(20) An immunomodulatory polypeptide derived from the pyrin domain of human IFI16 with amino acid residue changes.) [peptide A2]
- secretion of interleukin IL6 (STING activation [1]): very potent and synergistic effect
- secretion of the chemokine CXCL10 (STING activation [1]): partly impaired CXCL10
- synergistic effect of supporting STING activation: induction of type I IFNs (STING activation [2]): affected polypeptide synergistic effects

Substance: KKYKNIVLLKGLAVINDYHF ((1)..(20) An immunomodulatory polypeptide derived from the pyrin domain of human IFI16 with amino acid residue changes.) [peptide A13]
- secondary structure from CD spectrum [4]: random coil-coil formation
- secretion of the chemokine CXCL10 (STING activation [1]): without affecting CXL10 responses
- type I IFN responses (STING activation [1]): significantly increased type I IFN responses
- synergistic effect of supporting STING activation: CXCL10 cytokine secretion (STING activation [2]): strongly affected the synergistic effects
- synergistic effect of supporting STING activation: induction of type I IFNs (STING activation [2]): affected polypeptide synergistic effects

Substance: KKYKNIVLLKGLEVINDYHA ((1)..(20) An immunomodulatory polypeptide derived from the pyrin domain of human IFI16 with amino acid residue changes.) [peptide A20]
- synergistic effect of supporting STING activation: CXCL10 cytokine secretion (STING activation [2]): strongly affected the synergistic effects

Substance: KKYKNIVLAKGLEVINDYHF ((1)..(20) An immunomodulatory polypeptide derived from the pyrin domain of human IFI16 with amino acid residue changes.) [peptide A9]
- synergistic effect of supporting STING activation: induction of type I IFNs (STING activation [2]): affected polypeptide synergistic effects

Substance: KKYKNIVLLKGLEVINAYHF ((1)..(20) An immunomodulatory polypeptide derived from the pyrin domain of human IFI16 with amino acid residue changes.) [peptide A17]
- viral inhibition (HSV-1 GFP): ~100%

Substance: KKYKNIALLKGLEVINDYHF ((1)..(20) An immunomodulatory polypeptide derived from the pyrin domain of human IFI16 with amino acid residue changes.) [peptide A7]
- viral inhibition of alanine variant compared with SEQ ID NO.6 (HSV-1 GFP): depleted
- secretion of interleukin IL6 (STING activation [1]): prohibited the synergistic effects

Substance: KKYKNIVLLKGLEVINDYHF-NH2 [peptide 101]
- toxicity in human fibroblast (human fibroblast; HSV-1 GFP, HSV-2 GFP (MOI 0.05) or uninfected): no toxicity
- maximum cell death percentage (human fibroblast; highest peptide concentration utilized (80 μg/mL)): less than 10%

Substance: KKAKNIVLLKGLEVINDYHF ((1)..(20) An immunomodulatory polypeptide derived from the pyrin domain of human IFI16 with amino acid residue changes.) [peptide A3]
- secretion of interleukin IL6 (STING activation [1]): very potent and synergistic effect

Substance: KKYKNIVLLAGLEVINDYHF ((1)..(20) An immunomodulatory polypeptide derived from the pyrin domain of human IFI16 with amino acid residue changes.) [peptide A10]
- viral inhibition (HSV-1 GFP): ~100%
- antiviral effect compared with polypeptide NO. 6 at increased MOI (HSV-1 GFP; HSV-1 GFP MOI 0.1, 25 μg/mL, 48 hpi): increased effect
- secretion of interleukin IL6 (STING activation [1]): damped IL6 secretion
- secretion of the chemokine CXCL10 (STING activation [1]): without affecting CXL10 responses
- type I IFN responses (STING activation [1]): significantly increased type I IFN responses
- synergistic effect of supporting STING activation: induction of type I IFNs (STING activation [2]): affected polypeptide synergistic effects

Substance: KKYKNIVLLKGLEVINDYAF ((1)..(20) An immunomodulatory polypeptide derived from the pyrin domain of human IFI16 with amino acid residue changes.) [peptide A19]
- synergistic effect of supporting STING activation: CXCL10 cytokine secretion (STING activation [2]): strongly affected the synergistic effects

Substance: KKYKNIVALKGLEVINDYHF ((1)..(20) An immunomodulatory polypeptide derived from the pyrin domain of human IFI16 with amino acid residue changes.) [peptide A8]
- synergistic effect of supporting STING activation: induction of type I IFNs (STING activation [2]): affected polypeptide synergistic effects

From patent publication US20200399335A1, “MODIFIED IMMUNOMODULATORY PEPTIDE” (Aarhus Universitet, priority 2018, published 2020)
